Experimental data reported in ChEMBL document CHEMBL1777813, “Discovery of novel tetracyclic compounds as anaplastic lymphoma kinase inhibitors” (Bioorg Med Chem Lett, 2011).
The source made the active and inactive calls. No cut-off for these calls is given here.

Columns and labels:
KARPAS-299 [1] = assay: cells; details: Homo sapiens, KARPAS-299, 96 h
[2] = molecular target: ALK tyrosine kinase receptor (Homo sapiens, UniProt Q9UM73)
[3] = Clearance in mouse liver microsomes at 1 uM after 30 mins in presence of NADPH; format: ADME, Microsome
[4] = Clearance in human liver microsomes at 1 uM after 30 mins in presence of NADPH; format: ADME, Microsome
[5] = molecular target: Vascular endothelial growth factor receptor 2 (Homo sapiens, UniProt P35968); assay: Inhibition of KDR assessed as biotin-EGPWLEEEEEAYGWMDF peptide phosphorylation by TR-FRET assay
[6] = molecular target: Proto-oncogene tyrosine-protein kinase Src (Homo sapiens, UniProt P12931); assay: Inhibition of Src assessed as biotin-EGPWLEEEEEAYGWMDF peptide phosphorylation by TR-FRET assay
[7] = molecular target: Fibroblast growth factor receptor 2 (Homo sapiens, UniProt P21802); assay: Inhibition of FGFR2 assessed as biotin-EGPWLEEEEEAYGWMDF peptide phosphorylation by TR-FRET assay
[8] = molecular target: Tyrosine-protein kinase ABL1 (Homo sapiens, UniProt P00519); assay: Inhibition of Abl assessed as biotin-EGPWLEEEEEAYGWMDF peptide phosphorylation by TR-FRET assay
[9] = molecular target: Insulin-like growth factor 1 receptor (Homo sapiens, UniProt P08069); assay: Inhibition of IGF1R assessed as biotin-EGPWLEEEEEAYGWMDF peptide phosphorylation by TR-FRET assay
[10] = molecular target: Epidermal growth factor receptor (Homo sapiens, UniProt P00533); assay: Inhibition of EGFR assessed as biotin-EGPWLEEEEEAYGWMDF peptide phosphorylation by TR-FRET assay
[11] = molecular target: Receptor tyrosine-protein kinase erbB-2 (Homo sapiens, UniProt P04626); assay: Inhibition of HER2 assessed as biotin-HEQEDEPEGDYFEWLEPE peptide phosphorylation by TR-FRET assay
[12] = molecular target: Mast/stem cell growth factor receptor Kit (Homo sapiens, UniProt P10721); assay: Inhibition of Kit assessed as biotin-HEQEDEPEGDYFEWLEPE peptide phosphorylation by TR-FRET assay
[13] = molecular target: RAC-alpha serine/threonine-protein kinase (Homo sapiens, UniProt P31749); assay: Inhibition of AKT1 assessed as FI-H1-peptide phosphorylation by fluorescence polarization assay
Aurora kinase A = molecular target: T1, Aurora kinase A (Homo sapiens, UniProt O14965); assay: Inhibition of aurora A assessed as FLC-LRRASLG peptide phosphorylation by fluorescence polarization assay
T1 sequence (O14965 whole entry): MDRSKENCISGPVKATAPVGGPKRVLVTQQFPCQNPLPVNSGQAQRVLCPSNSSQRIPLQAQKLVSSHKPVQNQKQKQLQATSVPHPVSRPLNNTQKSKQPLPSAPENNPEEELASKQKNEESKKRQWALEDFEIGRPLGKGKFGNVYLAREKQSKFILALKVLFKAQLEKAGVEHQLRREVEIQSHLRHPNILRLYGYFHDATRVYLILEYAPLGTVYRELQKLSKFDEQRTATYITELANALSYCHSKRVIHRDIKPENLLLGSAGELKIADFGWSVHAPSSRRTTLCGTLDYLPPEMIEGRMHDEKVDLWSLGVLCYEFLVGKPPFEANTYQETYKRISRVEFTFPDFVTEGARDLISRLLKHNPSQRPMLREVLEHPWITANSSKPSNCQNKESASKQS

[14] = molecular target: Protein kinase C alpha type (Homo sapiens, UniProt P17252); assay: Inhibition of PKCalpha assessed as FLC-SIYRRGSRRWRKL peptide phosphorylation by fluorescence polarization assay
[15] = molecular target: T2, Protein kinase C beta type (Homo sapiens, UniProt P05771); assay: Inhibition of PKCbeta1 assessed as FLC-SIYRRGSRRWRKL peptide phosphorylation by fluorescence polarization assay
[16] = molecular target: T2, Protein kinase C beta type; assay: Inhibition of PKCbeta2 assessed as FLC-SIYRRGSRRWRKL peptide phosphorylation by fluorescence polarization assay
[17] = molecular target: RAF proto-oncogene serine/threonine-protein kinase (Homo sapiens, UniProt P04049); assay: Inhibition of Raf1 assessed as MEK1/2 phosphorylation by fluorescence polarization assay
KARPAS-299 [18] = assay: Antitumor activity against human KARPAS299 cells expressing NPM-ALK xenografted in SCID mouse assessed as reduction of tumor volume administered as po qd for 11 days; format: functional, organism-based
NCI-H2228 [19] = assay: Antitumor activity against human NCI-H2228 cells expressing EML4-ALK xenografted in SCID mouse assessed as reduction of tumor volume administered as po qd for 11 days; format: functional, organism-based
KARPAS-299 [20] = assay: Antitumor activity against human KARPAS299 cells expressing NPM-ALK xenografted in SCID mouse assessed as tumor regression at 6 to 60 mg/kg, po qd for 11 days; format: functional, organism-based
NCI-H2228 [21] = assay: Antitumor activity against human NCI-H2228 cells expressing EML4-ALK xenografted in SCID mouse assessed as tumor regression at 0.2 to 20 mg/kg, po qd for 11 days; format: functional, organism-based
Mus musculus [22] = assay: Toxicity in human KARPAS299 cells expressing NPM-ALK xenografted SCID mouse administered as change in body weight at 6 to 60 mg/kg, po qd for 11 days; format: organism-based, KARPAS-299; design: dose 6-60 mg/kg, route oral; details: in vivo, 264 h
Mus musculus [23] = assay: Toxicity in human NCI-H2228 cells expressing EML4-ALK xenografted SCID mouse administered as change in body weight at 0.2 to 20 mg/kg, po qd for 11 days; format: organism-based; design: dose 0.2-20 mg/kg, route oral; details: in vivo, 264 h

ALK tyrosine kinase receptor, sequence (Q9UM73 whole entry): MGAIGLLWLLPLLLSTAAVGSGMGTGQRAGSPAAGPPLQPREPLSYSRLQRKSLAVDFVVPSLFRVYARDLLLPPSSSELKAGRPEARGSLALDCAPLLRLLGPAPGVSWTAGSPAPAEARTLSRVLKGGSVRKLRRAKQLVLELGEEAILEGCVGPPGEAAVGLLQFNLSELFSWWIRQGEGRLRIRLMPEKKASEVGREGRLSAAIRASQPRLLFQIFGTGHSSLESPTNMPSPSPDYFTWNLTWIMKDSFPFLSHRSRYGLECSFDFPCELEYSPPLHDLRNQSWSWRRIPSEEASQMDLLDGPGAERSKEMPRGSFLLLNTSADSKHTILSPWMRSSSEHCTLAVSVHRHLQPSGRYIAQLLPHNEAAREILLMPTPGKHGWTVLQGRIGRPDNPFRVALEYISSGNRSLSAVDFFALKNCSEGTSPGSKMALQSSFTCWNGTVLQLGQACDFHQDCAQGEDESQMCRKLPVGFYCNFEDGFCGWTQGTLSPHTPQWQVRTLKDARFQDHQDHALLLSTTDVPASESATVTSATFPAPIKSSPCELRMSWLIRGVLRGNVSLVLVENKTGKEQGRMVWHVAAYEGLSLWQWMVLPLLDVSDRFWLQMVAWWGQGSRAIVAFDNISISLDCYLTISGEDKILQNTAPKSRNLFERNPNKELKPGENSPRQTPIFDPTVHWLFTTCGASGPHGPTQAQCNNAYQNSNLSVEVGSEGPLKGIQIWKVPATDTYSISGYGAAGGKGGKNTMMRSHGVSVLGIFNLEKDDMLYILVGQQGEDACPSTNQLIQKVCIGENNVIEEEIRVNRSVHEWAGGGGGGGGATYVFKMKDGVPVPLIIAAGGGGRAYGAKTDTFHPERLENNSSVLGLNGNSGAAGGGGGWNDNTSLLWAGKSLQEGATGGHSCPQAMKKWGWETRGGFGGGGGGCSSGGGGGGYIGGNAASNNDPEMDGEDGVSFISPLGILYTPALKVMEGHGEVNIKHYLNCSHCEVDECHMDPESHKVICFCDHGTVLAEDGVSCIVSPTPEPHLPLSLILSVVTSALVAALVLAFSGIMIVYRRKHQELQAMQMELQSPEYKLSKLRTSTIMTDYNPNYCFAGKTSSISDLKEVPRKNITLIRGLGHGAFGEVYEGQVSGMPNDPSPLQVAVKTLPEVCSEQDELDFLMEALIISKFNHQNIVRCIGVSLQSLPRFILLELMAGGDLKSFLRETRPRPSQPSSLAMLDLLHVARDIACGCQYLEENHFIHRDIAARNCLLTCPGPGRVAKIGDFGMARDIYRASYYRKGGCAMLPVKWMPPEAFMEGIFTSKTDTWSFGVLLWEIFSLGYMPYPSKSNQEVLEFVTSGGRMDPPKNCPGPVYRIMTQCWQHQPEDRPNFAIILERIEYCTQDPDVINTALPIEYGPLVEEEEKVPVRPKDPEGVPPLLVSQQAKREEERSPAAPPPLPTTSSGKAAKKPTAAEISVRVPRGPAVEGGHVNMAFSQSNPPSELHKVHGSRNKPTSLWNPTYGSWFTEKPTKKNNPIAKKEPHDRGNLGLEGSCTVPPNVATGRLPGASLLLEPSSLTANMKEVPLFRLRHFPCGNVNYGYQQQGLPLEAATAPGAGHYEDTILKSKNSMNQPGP
T2 sequence (P05771 whole entry): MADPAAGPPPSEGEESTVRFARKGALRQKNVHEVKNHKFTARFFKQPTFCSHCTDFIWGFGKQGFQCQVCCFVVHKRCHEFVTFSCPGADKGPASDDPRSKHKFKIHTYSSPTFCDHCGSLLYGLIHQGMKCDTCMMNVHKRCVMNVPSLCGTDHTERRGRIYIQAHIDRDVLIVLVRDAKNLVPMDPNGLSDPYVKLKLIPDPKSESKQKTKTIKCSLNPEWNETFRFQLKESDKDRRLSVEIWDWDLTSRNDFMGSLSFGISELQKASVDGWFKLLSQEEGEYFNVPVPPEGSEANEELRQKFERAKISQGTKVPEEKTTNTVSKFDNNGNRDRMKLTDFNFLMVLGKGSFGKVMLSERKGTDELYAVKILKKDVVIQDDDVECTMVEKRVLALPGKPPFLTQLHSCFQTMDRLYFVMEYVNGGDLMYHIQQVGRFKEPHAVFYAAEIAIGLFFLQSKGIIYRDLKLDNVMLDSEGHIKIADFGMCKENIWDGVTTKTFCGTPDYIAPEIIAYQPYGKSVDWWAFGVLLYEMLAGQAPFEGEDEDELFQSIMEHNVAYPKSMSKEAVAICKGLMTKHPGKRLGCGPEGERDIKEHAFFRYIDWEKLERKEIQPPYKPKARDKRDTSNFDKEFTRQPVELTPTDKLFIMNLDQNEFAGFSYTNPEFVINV
RAF proto-oncogene serine/threonine-protein kinase, sequence (P04049 whole entry): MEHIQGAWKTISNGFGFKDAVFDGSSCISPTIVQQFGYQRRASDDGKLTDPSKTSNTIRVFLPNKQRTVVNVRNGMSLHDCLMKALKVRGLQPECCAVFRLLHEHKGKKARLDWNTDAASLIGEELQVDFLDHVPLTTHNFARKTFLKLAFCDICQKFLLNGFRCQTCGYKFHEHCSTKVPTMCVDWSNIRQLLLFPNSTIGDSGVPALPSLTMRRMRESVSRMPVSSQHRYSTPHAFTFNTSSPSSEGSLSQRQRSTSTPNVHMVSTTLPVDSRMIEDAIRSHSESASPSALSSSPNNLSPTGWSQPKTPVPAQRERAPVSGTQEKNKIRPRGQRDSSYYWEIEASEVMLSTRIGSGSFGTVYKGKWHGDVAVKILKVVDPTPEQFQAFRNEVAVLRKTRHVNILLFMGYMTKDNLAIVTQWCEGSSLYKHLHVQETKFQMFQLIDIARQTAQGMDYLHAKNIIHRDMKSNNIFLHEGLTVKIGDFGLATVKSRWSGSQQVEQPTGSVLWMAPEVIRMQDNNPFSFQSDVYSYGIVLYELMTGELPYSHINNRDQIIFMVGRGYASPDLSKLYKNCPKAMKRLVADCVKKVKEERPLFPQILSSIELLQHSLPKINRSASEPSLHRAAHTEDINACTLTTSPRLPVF
Tyrosine-protein kinase ABL1, sequence (P00519 whole entry): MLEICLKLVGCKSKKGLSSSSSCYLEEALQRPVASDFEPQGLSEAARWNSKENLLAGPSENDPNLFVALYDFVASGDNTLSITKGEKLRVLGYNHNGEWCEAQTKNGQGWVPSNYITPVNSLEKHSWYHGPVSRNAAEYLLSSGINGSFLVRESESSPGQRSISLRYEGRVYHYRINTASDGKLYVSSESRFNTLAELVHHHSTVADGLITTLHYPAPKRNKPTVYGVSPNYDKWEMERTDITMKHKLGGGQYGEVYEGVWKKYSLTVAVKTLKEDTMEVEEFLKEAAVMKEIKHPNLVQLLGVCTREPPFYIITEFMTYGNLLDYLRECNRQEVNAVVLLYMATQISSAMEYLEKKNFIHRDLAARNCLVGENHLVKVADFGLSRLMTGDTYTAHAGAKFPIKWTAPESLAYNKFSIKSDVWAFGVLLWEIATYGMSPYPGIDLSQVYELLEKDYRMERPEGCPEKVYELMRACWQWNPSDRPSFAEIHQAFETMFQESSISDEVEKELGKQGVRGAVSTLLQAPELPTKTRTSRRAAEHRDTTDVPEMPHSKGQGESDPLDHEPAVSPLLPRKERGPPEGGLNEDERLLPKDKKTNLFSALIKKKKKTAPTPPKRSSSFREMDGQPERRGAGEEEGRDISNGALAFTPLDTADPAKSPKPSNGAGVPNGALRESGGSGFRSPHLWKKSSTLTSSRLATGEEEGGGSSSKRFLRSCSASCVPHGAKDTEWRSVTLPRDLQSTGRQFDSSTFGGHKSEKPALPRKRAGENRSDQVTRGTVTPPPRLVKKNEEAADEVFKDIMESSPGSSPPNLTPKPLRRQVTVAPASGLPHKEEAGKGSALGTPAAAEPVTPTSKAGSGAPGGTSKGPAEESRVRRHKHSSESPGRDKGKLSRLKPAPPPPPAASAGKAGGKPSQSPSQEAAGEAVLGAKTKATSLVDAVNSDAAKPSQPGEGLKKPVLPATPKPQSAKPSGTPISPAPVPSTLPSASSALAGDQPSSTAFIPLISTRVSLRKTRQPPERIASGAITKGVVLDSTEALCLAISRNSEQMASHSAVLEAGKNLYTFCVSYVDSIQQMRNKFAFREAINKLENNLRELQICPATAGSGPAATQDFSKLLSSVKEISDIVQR

SMILES | IC50 (KARPAS-299 [1]) | IC50 [2] | microsomal CLint at 1 µM [3] | microsomal CLint at 1 µM [4] | other results
CCN(CC)CCOc1ccc2c(c1)C(C)(C)c1[nH]c3cc([N+](=O)[O-])ccc3c1C2=O | 570 nM |  |  |  | 
CC(=O)NCCOc1ccc2c(c1)C(C)(C)c1[nH]c3cc(C#N)ccc3c1C2=O | 397 nM | 11.6 nM | 14.1 µL/min/mg | 4.2 µL/min/mg | 
CC1(C)c2cc(OCCNC(N)=O)ccc2C(=O)c2c1[nH]c1cc(C#N)ccc21 | 2310 nM |  | 6.8 µL/min/mg | 4 µL/min/mg | 
CC1(C)c2cc(N3CCN(C4COC4)CC3)ccc2C(=O)c2c1[nH]c1cc(C#N)ccc21 | 47.9 nM | 27 nM | 15.1 µL/min/mg | 9.6 µL/min/mg | 
CCCOc1ccc2c3c(oc2c1)C(C)(C)c1cc(OCCN(CC)CC)ccc1C3=O |  | 2470 nM |  |  | 
CCN(CC)CCOc1ccc2c(c1)C(C)(C)c1[nH]c3cc(C#N)ccc3c1C2=O | 60 nM |  | 51.4 µL/min/mg | 54.5 µL/min/mg | 
CC(C)N1CCN(c2ccc3c(c2)C(C)(C)c2[nH]c4cc(C#N)ccc4c2C3=O)CC1 |  |  | 23.1 µL/min/mg | 82.7 µL/min/mg | 
CC1(C)c2cc(N3CCN(S(C)(=O)=O)CC3)ccc2C(=O)c2c1[nH]c1cc(C#N)ccc21 | 263 nM | 37.4 nM | 15.8 µL/min/mg | 19.2 µL/min/mg | 
CC1(C)c2cc(OCCN3CCS(=O)(=O)CC3)ccc2C(=O)c2c1[nH]c1cc(C#N)ccc21 | 87.5 nM | 3.7 nM | 24.9 µL/min/mg | 67 µL/min/mg | 
CC1(C)c2cc(N3CCOCC3)ccc2C(=O)c2c1[nH]c1cc(C#N)ccc21 | 134 nM | 18.5 nM | 8.1 µL/min/mg | 33.6 µL/min/mg | 
CCN(CC)CCOc1ccc2c(c1)C(C)(C)c1oc3cc(Cl)ccc3c1C2=O |  | 660 nM |  |  | 
CCN(CC)CCOc1ccc2c(c1)C(C)(C)c1oc3cc(Br)ccc3c1C2=O |  | 770 nM |  |  | 
CC1(C)c2cc(C3CCN(C4COC4)CC3)ccc2C(=O)c2c1[nH]c1cc(C#N)ccc21 |  |  | 10.4 µL/min/mg | 10.2 µL/min/mg | IC50 [5]: 100 nM; IC50 [6]: 250 nM; IC50 [7]: 360 nM; IC50 [8]: 370 nM; IC50 [9]: 1000 nM; IC50 [10]: > 50000 nM; IC50 [11]: > 50000 nM; IC50 [12]: > 50000 nM; IC50 [13]: > 50000 nM; IC50 (Aurora kinase A): > 50000 nM; IC50 [14]: > 50000 nM; IC50 [15]: > 50000 nM; IC50 [16]: > 50000 nM; IC50 [17]: > 50000 nM; Activity (KARPAS-299 [18]): Dose-dependent effect; Activity (NCI-H2228 [19]): Dose-dependent effect; Activity (KARPAS-299 [20]): Active; Activity (NCI-H2228 [21]): Active; Activity (Mus musculus [22]): Non-toxic; Activity (Mus musculus [23]): Non-toxic
CC1(C)c2cc(N3CCC(O)CC3)ccc2C(=O)c2c1[nH]c1cc(C#N)ccc21 | 115 nM | 11.4 nM | 24.6 µL/min/mg | 7.1 µL/min/mg | 
CCN(CC)CCOc1ccc2c(c1)C(C)(C)c1[nH]c3cc(Cl)ccc3c1C2=O | 490 nM |  |  |  | 
CCN(CC)CCOc1ccc2c(c1)C(C)(C)c1oc3cc(C(F)(F)F)ccc3c1C2=O |  | 3470 nM |  |  | 
CCN(CC)CCOc1ccc2c(c1)C(C)(C)c1[nH]c3cc(Br)ccc3c1C2=O | 680 nM |  |  |  | 
CC1(C)c2cc(N3CCCCC3)ccc2C(=O)c2c1[nH]c1cc(C#N)ccc21 | 331 nM | 33.4 nM | 58.9 µL/min/mg | 39.5 µL/min/mg | 
